Data published in US9426990B2, “Herbicidal agents containing aclonifen” (BAYER CROPSCIENCE AG, priority 2012, dated 2016).

What follows are compounds tested on Lolium spp. resistant to HRAC group A (assay: greenhouse experiment, post-emergence treatment of resistant ryegrass biotypes (HRAC group A resistant)). Settings: post-emergence (PO, BBCH 11), about 3 weeks after application, dose g of AS/ha: aclonifen 225, pendimethalin 300, picolinafen 25, mixture 225 + 300 + 25, pinoxaden + cloquintocet-mexyl 60 + 15.
Type: in vivo
Experimental: (§1) In the standard design of the test, seeds of various broad-leaved weed and weed grass biotypes (origins) were sown in a 8-13 cm diameter pot filled with natural soil of a standard field soil (loamy silt; non-sterile) and covered with a covering soil layer of about 1 cm. The pots were then cultivated in a greenhouse (12-16 h light, temperature day 20-22° C., night 15-18° C.) until the time of application. The pots were treated on a laboratory track sprayer with spray liquors comprising the compositions according to the invention, mixtures of the prior art or components used individually. Application of the active compounds or active compound combinations formulated as WG, WP, EC or otherwise was carried out at the appropriate growth stages of the plants. The amount of water used for spray application was 100-600 l/ha. After the treatment, the plants were returned to the greenhouses.
(§2) About 3 weeks after the application, the soil action or/and foliar action was assessed visually according to a scale of 0-100% in comparison to an untreated comparative group: 0%=no noticeable effect compared to the untreated comparative group; 100%=full effect compared to the untreated comparative group.
(§3) 2. Post-emergence action against weeds: seeds of various broad-leaved weed and weed grass biotypes (origins) were sown in a 8-13 cm diameter pot filled with natural soil of a standard field soil (loamy silt; non-sterile) and covered with a covering soil layer of about 1 cm. The pots were then cultivated in a greenhouse (12-16 h of light, temperature day 20-22° C., night 15-18° C.) until the time of application. […]
(§4) Insofar as herbicidal effects of the compositions according to the invention compared to mixtures of the prior art or compared to components applied individually against economically important mono- and dicotyledonous harmful plants were the center of attention, the synergistic herbicidal activities were calculated using Colby's formula (cf. S. R. Colby; Weeds 15 (1967), 20-22): E^C=(A+B+C)−(A×B+A×C+B×C)/100+(A×B×C)/10000 where: […]

Compound | herbicidal effect, visual assessment on a scale of 0-100% versus untreated comparative group [%]
Nc1c([N+](=O)[O-])ccc(Oc2ccccc2)c1Cl [(A) aclonifen, 2-chloro-6-nitro-3-phenoxybenzenamine] | 25
CCC(CC)Nc1c([N+](=O)[O-])cc(C)c(C)c1[N+](=O)[O-] [(B) pendimethalin, N-(1-ethylpropyl)-3,4-dimethyl-2,6-dinitrobenzenamine] | 5
O=C(Nc1ccc(F)cc1)c1cccc(Oc2cccc(C(F)(F)F)c2)n1 [(C) picolinafen, N-(4-fluorophenyl)-6-[3-(trifluoromethyl)phenoxy]-2-pyridinecarboxamide] | 10

These compounds were tested on Lolium spp. resistant to HRAC group B (assay: greenhouse experiment, post-emergence treatment of resistant ryegrass biotypes (HRAC group B resistant)). Settings: post-emergence (PO, BBCH 11), about 3 weeks after application, dose g of AS/ha: aclonifen 225, pendimethalin 300, picolinafen 25, mixture 225 + 300 + 25, mesosulfuron + iodosulfuron + mefenpyr 15 + 3 + 45.
Type: in vivo
Experimental: as §1, §2, §3, §4

Compound | herbicidal effect, visual assessment on a scale of 0-100% versus untreated comparative group [%]
Nc1c([N+](=O)[O-])ccc(Oc2ccccc2)c1Cl [(A) aclonifen, 2-chloro-6-nitro-3-phenoxybenzenamine] | 50
CCC(CC)Nc1c([N+](=O)[O-])cc(C)c(C)c1[N+](=O)[O-] [(B) pendimethalin, N-(1-ethylpropyl)-3,4-dimethyl-2,6-dinitrobenzenamine] | 0
O=C(Nc1ccc(F)cc1)c1cccc(Oc2cccc(C(F)(F)F)c2)n1 [(C) picolinafen, N-(4-fluorophenyl)-6-[3-(trifluoromethyl)phenoxy]-2-pyridinecarboxamide] | 5
